# Experiments:
# Plasmodium falciparum [1] = assay: Antiplasmodial activity against multi-resistant Plasmodium falciparum W2 infected in erythrocytes assessed as inhibition of parasite growth incubated for 48 hrs by flow cytometry; type: functional, organism-based; conditions: W2, Erythrocyte
# Plasmodium falciparum [2] = assay: Antimalarial activity against chloroquine-resistant Plasmodium falciparum FcB1 assessed as inhibition of parasite growth; type: functional, organism-based
# Plasmodium falciparum [3] = assay: Antimalarial activity against artemisinin-resistant Plasmodium falciparum R539T infected in O positive erythrocytes assessed as reduction in parasite growth incubated for 48 hrs by giemsa staining based assay; type: functional, organism-based; conditions: Erythrocyte
# Plasmodium falciparum [4] = assay: Antimalarial activity against artemisinin-sensitive parental Plasmodium falciparum 3D7 infected in O positive erythrocytes assessed as reduction in parasite growth incubated for 48 hrs by giemsa staining based assay; type: functional, organism-based; conditions: 3D7, Erythrocyte
# [5] = Selectivity index, ratio of IC50 for chloroquine-resistant Plasmodium falciparum RKL-9 transfected in A positive human erythrocytes to IC50 for chloroquine-sensitive Plasmodium falciparum 3D7 transfected in A positive human erythrocytes; type: functional
# Plasmodium falciparum [6] = assay: Antimalarial activity against chloroquine-sensitive Plasmodium falciparum 3D7 transfected in A positive human erythrocytes assessed as reduction in schizont maturation incubated for 48 hrs by giemsa stain based assay; type: functional, organism-based; conditions: 3D7, 48 h
# Plasmodium falciparum [7] = assay: Antimalarial activity against chloroquine-resistant Plasmodium falciparum RKL-9 transfected in A positive human erythrocytes assessed as reduction in schizont maturation incubated for 48 hrs by giemsa stain based assay; type: functional, organism-based; conditions: RKL-9, 48 h
# Plasmodium berghei [8] = assay: Antiplasmodial activity against Plasmodium berghei NK-65 infected in Swiss albino mouse assessed as mean survival time of mouse at 100 mg/kg, po administered once daily for 4 days followed by artesunate addition at 50 mg/kg for 60 mins and measured 24 hrs post last dose by giemsa staining based analysis; type: functional; conditions: time 5 day
# Plasmodium berghei [9] = assay: Antiplasmodial activity against Plasmodium berghei NK-65 infected in Swiss albino mouse assessed as reduction of parasitaemia at 100 mg/kg, po administered once daily for 4 days followed by artesunate addition at 50 mg/kg for 60 mins and measured 24 hrs post last dose by giemsa staining based analysis relative to control; type: functional; parameters: scale not given: the % may be the effect or the level left; conditions: time 5 day
# [10] = Cytotoxicity against human dermal fibroblast cultured as 2D cells assessed as inhibition of cell growth incubated for 48 hrs by MTT assay; type: toxicity, cell-based; conditions: human dermal fibroblasts cultured as 2D cells
# Plasmodium falciparum [11] = assay: Antimalarial activity against chloroquine-sensitive Plasmodium falciparum […] assessed as reduction in parasite growth; type: functional, organism-based
# Plasmodium falciparum [12] = assay: Antimalarial activity against chloroquine-sensitive Plasmodium falciparum 3D7 by SYBR green assay; type: functional, organism-based
# Plasmodium falciparum [13] = assay: Antimalarial activity against chloroquine-resistant Plasmodium falciparum K1; type: functional, organism-based
# Plasmodium falciparum [14] = assay: Antimalarial activity against Plasmodium falciparum 3D7 infected in erythrocytes assessed as inhibition of parasite growth incubated for 48 hrs by SYBR-Green I fluorescence-based assay; type: functional, organism-based; conditions: 3D7, Erythrocyte
# Plasmodium falciparum [15] = assay: Antimalarial activity against Plasmodium falciparum INDO infected in erythrocytes assessed as inhibition of parasite growth incubated for 48 hrs by SYBR-Green I fluorescence-based assay; type: functional, organism-based; conditions: Erythrocyte
# Plasmodium falciparum [16] = assay: Antimalarial activity against chloroquine-sensitive Plasmodium falciparum D10 transfected in human type A-positive RBC cells assessed reduction in parasite growth by measuring LDH activity incubated for 72 hrs by spectrophotometric analysis; type: functional, organism-based
# Plasmodium falciparum [17] = assay: Antimalarial activity against chloroquine-resistant Plasmodium falciparum W2 transfected in human type A-positive RBC cells assessed reduction in parasite growth by measuring LDH activity incubated for 72 hrs by spectrophotometric analysis; type: functional, organism-based
# Plasmodium falciparum [18] = assay: Antimalarial activity against chloroquine-resistant Plasmodium falciparum K1 assessed as reduction in parasite growth incubated for 72 hrs by ELISA; type: functional, organism-based; conditions: K1, 72 h
# Plasmodium falciparum [19] = assay: Antimalarial activity against chloroquine-sensitive Plasmodium falciparum 3D7 assessed as reduction in parasite growth; type: functional, organism-based
# Plasmodium falciparum [20] = assay: Antimalarial activity against chloroquine-resistant Plasmodium falciparum K1 assessed as reduction in parasite growth; type: functional, organism-based
# Plasmodium falciparum [21] = assay: Antimalarial activity against Plasmodium falciparum NF54 infected in human erythrocytes assessed as reduction in parasitemia incubated for 48 hrs by [3H]-hypoxanthine based liquid scintillation counting analysis; conditions: NF54, Erythrocyte
# [22] = Plasmodium falciparum, D10, Erythrocyte, 72 h
# [23] = Plasmodium falciparum, W2, Erythrocyte, 72 h
structure (smiles),measurement,setting,value
COc1ccc(C2NCCc3c2[nH]c2ccccc32)cc1 (configuration not stated),IC50,Plasmodium falciparum [1],0.7 µM
COC(=O)c1cc2c([nH]c3ccccc32)c(C(=O)c2c[nH]c3ccccc23)n1,IC50,Plasmodium falciparum [2],23.3 µM
COc1ccc(C2NCCc3c2[nH]c2ccccc32)cc1OC (configuration not stated),IC50,Plasmodium falciparum [3],2.99 µM
same,IC50,Plasmodium falciparum [4],3.03 µM
COC(=O)[C@@H]1Cc2c([nH]c3ccccc23)[C@@H](c2ccc3c(c2)OCO3)N1,Selectivity Index,[5],>10
same,IC50,Plasmodium falciparum [6],< 1 µg/mL
same,IC50,Plasmodium falciparum [7],< 1 µg/mL
same,Survival,Plasmodium berghei [8],25.8 days
same,Activity,Plasmodium berghei [9],99.69%
same,CC50 at 48 h,[10],> 640 µg/mL
Clc1ccc(C2NCCc3c2[nH]c2ccccc32)cc1 (configuration not stated),IC50,Plasmodium falciparum [1],4.8 µM
O=C(O)CCc1nccc2c1[nH]c1ccccc12,IC50,Plasmodium falciparum [11],0.0767 µg/mL
O=C(O)c1cc2c([nH]c3ccccc32)c(-c2c[nH]c3ccccc23)n1,IC50,Plasmodium falciparum [2],> 31 µM
Brc1ccc(C2NCCc3c2[nH]c2ccccc32)cc1 (configuration not stated),IC50,Plasmodium falciparum [1],6.9 µM
CN(C)c1ccc(C2NCCc3c2[nH]c2ccccc32)cc1 (configuration not stated),IC50,Plasmodium falciparum [1],3.9 µM
O=[N+]([O-])c1ccc(C2NCCc3c2[nH]c2ccccc32)cc1 (configuration not stated),IC50,Plasmodium falciparum [1],1.7 µM
Fc1ccc(C2NCCc3c2[nH]c2ccccc32)cc1 (configuration not stated),IC50,Plasmodium falciparum [1],1.1 µM
O=C(c1c[nH]c2ccc(O)cc12)c1nccc2c1[nH]c1ccc(O[C@@H]3O[C@H](CO)[C@@H](O)[C@H](O)[C@H]3O)cc12,IC50,Plasmodium falciparum [12],5 µM
COc1ccc2[nH]cc(C(=O)c3nccc4c3[nH]c3ccc(OC)cc34)c2c1,IC50,Plasmodium falciparum [2],1 µM
C/C=C/C(=O)N1CCc2c(n(C(=O)OC(C)(C)C)c3ccccc23)C1CC(=O)OCC (configuration not stated),IC50,Plasmodium falciparum [13],15 µM
CCOC(=O)c1cc2c([nH]c3ccccc32)c(-c2ccc(/N=C(/Nc3ccccc3)NC3CC3)cc2)n1,IC50,Plasmodium falciparum [14],1 µM
same,IC50,Plasmodium falciparum [15],0.6 µM
CC(C)(C)CCNC(=O)C1Cc2c([nH]c3ccccc23)C(c2ccc(Cl)cc2)N1 (configuration not stated),IC50,Plasmodium falciparum [16]; [22],10.5 µM
same,IC50,Plasmodium falciparum [17]; [23],7.8 µM
CC(C)(C)OC(=O)n1cc(CC2NCCc3c2[nH]c2ccccc32)c2ccccc21 (configuration not stated),IC50,Plasmodium falciparum [2],8.5 µM
C/C=C/C(=O)N1CCc2c([nH]c3ccccc23)C1CC(=O)OCC (configuration not stated),IC50,Plasmodium falciparum [18],13.8 µM
CCOC(=O)c1cc2c([nH]c3ccccc32)c(-c2ccc(N)cc2)n1,IC50,Plasmodium falciparum [14],37.7 µM
same,IC50,Plasmodium falciparum [15],39 µM
CCOC(=O)c1cc2c([nH]c3ccccc32)c(-c2ccc(NC(=S)Nc3ccccc3)cc2)n1,IC50,Plasmodium falciparum [14],6.4 µM
same,IC50,Plasmodium falciparum [15],0.64 µM
C=CCC1OC(C)=Cn2c3ccccc3c3cc(C(=O)OC)nc1c32 (configuration not stated),IC50,Plasmodium falciparum [19],> 5 µM
same,IC50,Plasmodium falciparum [20],> 5 µM
C=C(CC1OC(C)=Cn2c3ccccc3c3cc(C(=O)OC)nc1c32)C(=O)OC (configuration not stated),IC50,Plasmodium falciparum [19],0.57 µM
same,IC50,Plasmodium falciparum [20],0.72 µM
Clc1cc(Cl)c(Cl)c(C2NCCc3c2[nH]c2ccccc32)c1 (configuration not stated),IC50,Plasmodium falciparum [3],4.89 µM
same,IC50,Plasmodium falciparum [4],3.43 µM
CON(C)C(=O)CC1c2c(c3ccccc3n2C(=O)OC(C)(C)C)CCN1C(=O)OCc1ccccc1 (configuration not stated),IC50,Plasmodium falciparum [13],13.8 µM
COC(=O)c1cc2c3ccccc3n3c2c(n1)C(C1C=CCCC1)OC(C)=C3 (configuration not stated),IC50,Plasmodium falciparum [19],1.64 µM
same,IC50,Plasmodium falciparum [20],> 5 µM
COC(=O)c1cc2c3ccccc3n3c2c(n1)C(CC=C(C)C)OC(C)=C3 (configuration not stated),IC50,Plasmodium falciparum [19],> 5 µM
same,IC50,Plasmodium falciparum [20],> 5 µM
COC(=O)c1cc2c3cc(Cl)ccc3n3c2c(n1)C(C/C=C(\C)CCC=C(C)C)OC(C)=C3 (configuration not stated),IC50,Plasmodium falciparum [19],1.55 µM
same,IC50,Plasmodium falciparum [20],> 5 µM
CC1NC(C(=O)N2CCCCC2)Cc2c1[nH]c1ccccc21 (configuration not stated),IC50,Plasmodium falciparum [16]; [22],13.2 µM
same,IC50,Plasmodium falciparum [17]; [23],9.6 µM
CCCCCCCC[C@@H]1N[C@@H](C(=O)NCCC(C)(C)C)Cc2c1[nH]c1ccccc21,IC50,Plasmodium falciparum [16]; [22],4.45 µM
same,IC50,Plasmodium falciparum [17]; [23],4 µM
CCOC(=O)c1cc2c([nH]c3ccccc32)c(-c2ccc(NS(=O)(=O)c3ccc(C)cc3)cc2)n1,IC50,Plasmodium falciparum [14],3.7 µM
same,IC50,Plasmodium falciparum [15],1.9 µM
CCOC(=O)c1cc2c([nH]c3ccccc32)c(-c2ccc(NC(=O)C(C)(C)C)cc2)n1,IC50,Plasmodium falciparum [14],3.5 µM
same,IC50,Plasmodium falciparum [15],2.38 µM
c1ccc2c(CC3NCCc4c3[nH]c3ccccc43)c[nH]c2c1 (configuration not stated),IC50,Plasmodium falciparum [2],9.6 µM
CC#CCN1CCc2c([nH]c3ccccc23)C1CC(=O)OCC (configuration not stated),IC50,Plasmodium falciparum [18],13.8 µM
COC(=O)c1cc2c3ccccc3n3c2c(n1)C(c1ccccc1)OC(C)=C3 (configuration not stated),IC50,Plasmodium falciparum [19],> 5 µM
same,IC50,Plasmodium falciparum [20],> 5 µM
CCOC(=O)c1cc2c([nH]c3ccccc32)c(-c2ccc(/N=C(/Nc3ccc(OC(F)(F)F)cc3)NC3CC3)cc2)n1,IC50,Plasmodium falciparum [14],1 µM
same,IC50,Plasmodium falciparum [15],0.77 µM
CCOC(=O)CC1c2c(c3ccccc3n2C(=O)OC(C)(C)C)CCN1C(=O)OCc1ccccc1 (configuration not stated),IC50,Plasmodium falciparum [18],15.5 µM
O=C(NCCCN1CCOCC1)C1Cc2c([nH]c3ccccc23)C(c2ccc(Cl)cc2)N1 (configuration not stated),IC50,Plasmodium falciparum [16]; [22],11.5 µM
same,IC50,Plasmodium falciparum [17]; [23],6.15 µM
CCOC(=O)CC1c2[nH]c3ccccc3c2CCN1S(=O)(=O)c1ccc(C)cc1 (configuration not stated),IC50,Plasmodium falciparum [18],13.8 µM
CCC1NC(C(=O)NC23CC4CC(CC(C4)C2)C3)Cc2c1[nH]c1ccccc21 (configuration not stated),IC50,Plasmodium falciparum [16]; [22],9.73 µM
same,IC50,Plasmodium falciparum [17]; [23],11.4 µM
COC(=O)c1cc2c3cc(Cl)ccc3n3c2c(n1)COC(C)=C3,IC50,Plasmodium falciparum [19],1.78 µM
same,IC50,Plasmodium falciparum [20],2.45 µM
COC(=O)C1Cc2c([nH]c3ccccc23)C(Cc2c[nH]c3ccccc23)N1 (configuration not stated),IC50,Plasmodium falciparum [2],17.2 µM
CCOC(=O)c1cc2c([nH]c3ccccc32)c(-c2ccc(/N=C(/Nc3ccc(OC)cc3)NC3CC3)cc2)n1,IC50,Plasmodium falciparum [14],7.6 µM
same,IC50,Plasmodium falciparum [15],1.2 µM
CC(C)(C)OC(=O)n1c2c(c3ccccc31)CCN(C(=O)OCc1ccccc1)C2CCO (configuration not stated),IC50,Plasmodium falciparum [13],21.4 µM
CCOC(=O)c1cc2c([nH]c3ccccc32)c(-c2ccc(NC(=S)Nc3ccc(OC(F)(F)F)cc3)cc2)n1,IC50,Plasmodium falciparum [14],18.7 µM
same,IC50,Plasmodium falciparum [15],0.39 µM
CC(C)(C)CC(C)(C)NC(=O)C1Cc2c([nH]c3ccccc23)C(c2ccc(Cl)cc2)N1 (configuration not stated),IC50,Plasmodium falciparum [16]; [22],8.41 µM
same,IC50,Plasmodium falciparum [17]; [23],6.41 µM
CC#CCN1CCc2c(n(C(=O)OC(C)(C)C)c3ccccc23)C1CC(=O)OCC (configuration not stated),IC50,Plasmodium falciparum [13],29.8 µM
C=CCC1OC(C)=Cn2c3ccc(Cl)cc3c3cc(C(=O)OC)nc1c32 (configuration not stated),IC50,Plasmodium falciparum [19],> 5 µM
same,IC50,Plasmodium falciparum [20],> 5 µM
CCOC(=O)c1cc2c([nH]c3ccccc32)c(-c2ccc(NC(=S)Nc3ccc(OC)cc3)cc2)n1,IC50,Plasmodium falciparum [14],1.6 µM
same,IC50,Plasmodium falciparum [15],1.8 µM
N#Cc1ccc(C2NCCc3c2[nH]c2ccccc32)cc1 (configuration not stated),IC50,Plasmodium falciparum [1],1.1 µM
O=C(NC1CCCCC1)C1Cc2c([nH]c3ccccc23)C(c2ccc(Cl)cc2)N1 (racemic; form 1),IC50,Plasmodium falciparum [16]; [22],16.1 µM
same,IC50,Plasmodium falciparum [17]; [23],13.5 µM
O=C(NC1CCCCC1)C1Cc2c([nH]c3ccccc23)C(c2ccc(Cl)cc2)N1 (racemic; form 2),IC50,Plasmodium falciparum [16]; rbc,12.5 µM
same,IC50,Plasmodium falciparum [17]; rbc,9.13 µM
Nc1nccc(-c2nccc3c2[nH]c2ccccc23)n1 [ANNOMONTINE],IC50,Plasmodium falciparum [14],3.44 µM
same,IC50,Plasmodium falciparum [15],3.06 µM
C[C@H]1Cc2c([nH]c3cc(Cl)c(F)cc23)[C@@]2(N1)C(=O)Nc1ccc(Cl)cc12 [CIPARGAMIN],IC50,Plasmodium falciparum [21],0.0005 µM
O=C(c1c[nH]c2ccc(O)cc12)c1nccc2c1[nH]c1ccc(O)cc12 [HYRTIOSULAWESINE],IC50,Plasmodium falciparum [2],1.3 µM
